Laboratory results as given in the supplement of paper PMC9663587.

Legend:
Experiment in all cases: GRmax, 72 h; higher = less effect;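 also: breast cell lines in 384-well plates, nine doses across a 10^4 range, Dye Drop imaging of viable cells vs DMSO and time-zero plates, GR 0 means no net growth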
[1] = tested on: HCC1395
[2] = tested on: HCC1419
[3] = tested on: HCC70
[4] = tested on: SKBR3
[5] = tested on: CAL851
[6] = tested on: MDAMB175VII
[7] = tested on: PDXHCI002
[8] = tested on: BT474
[9] = tested on: HCC1806
[10] = tested on: ZR7530
[11] = tested on: SUM185PE
[12] = tested on: SUM159

| SMILES | GRmax, 72 h [1] | GRmax, 72 h [2] | GRmax, 72 h [3] | GRmax, 72 h [4] | GRmax, 72 h [5] | GRmax, 72 h [6] | GRmax, 72 h [7] | GRmax, 72 h [8] | GRmax, 72 h [9] | GRmax, 72 h [10] | GRmax, 72 h [11] | GRmax, 72 h [12] |
| --- | --- | --- | --- | --- | --- | --- | --- | --- | --- | --- | --- | --- |
| COc1cc2nccc(Oc3ccc(NC(=O)C4(C(=O)Nc5ccc(F)cc5)CC4)cc3)c2cc1OC [Cabozantinib] (max 10 µM) | 0.114 GR | 0.622 GR | -0.0911 GR | 0.442 GR | 0.173 GR | 0.0863 GR | 0.234 GR | 0.647 GR | 0.691 GR | 0.449 GR | 0.0169 GR | 0.257 GR |
| COc1cc2c(Oc3ccc4[nH]c(C)cc4c3F)ncnc2cc1OCCCN1CCCC1 [Cediranib/AZD2171] (max 10 µM) | -0.482 GR | -0.0329 GR | -0.326 GR | -0.54 GR | -0.238 GR | -0.648 GR | -0.432 GR | 0.742 GR | 0.0954 GR | -0.145 GR | 0.0765 GR | 0.518 GR |
| Cc1cc(Nc2ncc(Cl)c(Nc3ccccc3S(=O)(=O)C(C)C)n2)c(OC(C)C)cc1C1CCNCC1 [Ceritinib/LDK378] (max 10 µM) | -0.627 GR | -0.867 GR | -0.881 GR | -0.825 GR | -0.596 GR | 0.261 GR | -0.634 GR | 1.18 GR | -0.406 GR | 0.416 GR | 0.412 GR | -0.487 GR |
| Cc1nc(Nc2ncc(C(=O)Nc3c(C)cccc3Cl)s2)cc(N2CCN(CCO)CC2)n1 [Dasatinib] (max 10 µM) | -0.337 GR | -0.196 GR | -0.579 GR | 0.081 GR | -0.244 GR | -0.714 GR | 0.0322 GR | -0.42 GR | -0.0992 GR | -0.0607 GR | 0.388 GR | 0.732 GR |
| COc1cccc2c1C(=O)c1c(O)c3c(c(O)c1C2=O)C[C@@](O)(C(=O)CO)C[C@@H]3O[C@H]1C[C@H](N)[C@H](O)[C@H](C)O1 [Doxorubicin] (max 3.162 µM) | -0.417 GR | -0.466 GR | -0.779 GR | -0.616 GR | -0.378 GR | -0.595 GR | -0.654 GR | -0.605 GR | -0.324 GR | -0.274 GR | 0.744 GR | -0.361 GR |
| COc1cc([C@@H]2c3cc4c(cc3[C@@H](O[C@@H]3O[C@@H]5CO[C@@H](C)O[C@H]5[C@H](O)[C@H]3O)[C@H]3COC(=O)[C@H]23)OCO4)cc(OC)c1O [Etoposide] (max 10 µM) | -0.225 GR | 0.0317 GR | -0.152 GR | -0.317 GR | -0.241 GR | – | -0.179 GR | – | -0.563 GR | – | – | -0.279 GR |
| CO[C@H]1C[C@@H]2CC[C@@H](C)[C@@](O)(O2)C(=O)C(=O)N2CCCC[C@H]2C(=O)O[C@H]([C@H](C)C[C@@H]2CC[C@@H](OCCO)[C@H](OC)C2)CC(=O)[C@H](C)/C=C(\C)[C@@H](O)[C@@H](OC)C(=O)[C@H](C)C[C@H](C)/C=C/C=C/C=C/1C [Everolimus] (max 10 µM) | 0.404 GR | 0.18 GR | 0.373 GR | 0.118 GR | 0.371 GR | -0.189 GR | 0.987 GR | 0.14 GR | 0.817 GR | 0.169 GR | 0.78 GR | 0.866 GR |
| CCC(=O)Nc1ccc(C(=O)Nc2ccc(Nc3ncc4c(n3)N(C)c3ccc(C)cc3C(=O)N4C)cc2)cc1 [FMF-03-145-1] | -0.151 GR | 0.387 GR | -0.317 GR | -0.0145 GR | -0.136 GR | 0.0817 GR | -0.102 GR | -0.227 GR | -0.09 GR | -0.0468 GR | 0.205 GR | -0.12 GR |
| CC[C@@]1(O)C(=O)OCc2c1cc1n(c2=O)Cc2cc3c(CN(C)C)c(O)ccc3nc2-1 [Topotecan] (max 10 µM) | -0.584 GR | -0.786 GR | -0.861 GR | -0.271 GR | -0.296 GR | – | -0.701 GR | – | -0.546 GR | – | – | -0.454 GR |
